Experiments:
[1] = cited from earlier work
[2] = side effects in patients; cited from earlier work
Irradiated mice (6.5 Gy) = test: In vivo treatment of irradiated mice with FTGN; conditions: one or two intravenous 50 μg injections (2 or 2 and 24 hours post-irradiation), one month later
Protocol: Irradiated mice (6.5 Gy) were treated in vivo with the FTGN tetrapeptide. Thirty days after treatment BMC were counted.
Irradiated mice (6.5 Gy) were treated in vivo with the FTGN tetrapeptide. Thirty days after treatment CFU from BM were counted.
Irradiated mice (6.5 Gy) were treated with one or two intravenous 50 μg FTGN tetrapeptide injections (2 or 2 and 24 hours post-irradiation). BM nucleated cells count (FIG. 17) and CFUc (FIG. 18) were examined one month later.

[3] = FTGN tetrapeptide stability (HPLC); format: physicochemical
Protocol: FIG. 6a: HPLC chromatogram of FTGN tetrapeptide reconstituted in water after storage at −10° C. for one year.
FIG. 6c: HPLC chromatogram of FTGN tetrapeptide reconstituted in serum and incubated at 37° C. during 4 hours.
Dry freeze long term storage of the FTGN oligopeptide preserved its structural (FIG. 6a) and biological activities. The dry frozen tetrapeptide conserved its physical characteristics after reconstitution in purified water or serum (FIG. 6c) and was stable after four hours of incubation at 37° C.

[4] = system: Whole body irradiated C57Bl/6J mice; test: Ex vivo BMC treatment with FTGN, transplantation into whole body irradiated mice; format: in vivo
Protocol: Mice that were whole-body irradiated with a dose of 7.5 Gy (which is normally considered a lethal dose), were transplanted by intravenous injection with donor's bone marrow cells preincubated ex vivo with different concentrations of the synthetic tetrapeptide.
Bone marrow cells (BMC) were transplanted into mice by intravenous injection, usually 60,000 cells in 0.3 ml of PBS buffer after 2 hours incubation at 37° C. with the examined agent.
Mice spleen colonies (CFUs) were counted using the method of Till and McCulloch [Till J. E. and McCulloch E. A. Radiation Res. (1961) 14: 213] on 9th, 11th and 14th days after irradiation.
CFUc were assayed in semi-solid medium using 2×10^4 cells/plate.
Donor normal BMC (4-6×10^6 cells/nil) from C57 Bl/6J mice were incubated with different concentrations of FTGN tetrapeptide (0.05; 0.1; 0.5; 1.0; 10 and 50 μg/ml) for two hours. Whole body irradiated (7.0 Gy) C57Bl/6J mice were intravenously injected with 6×10^4 treated or control cells. The recovery of the hematopoietic system in the transplanted mice was evaluated from the 4th to the 30th day post-irradiation.

[5] = system: Whole body irradiated C57Bl/6J mice; test: as above; format: in vivo; conditions: 7.5 Gy, treated vs untreated mice (summary)
[6] = system: Whole body irradiated (7.0 Gy) C57Bl/6J mice; test: Optimal FTGN ex vivo treatment concentration, normal or irradiated donor BMC transplanted into irradiated mice; format: in vivo
Protocol: (§1) Total body irradiated mice (7.0 Gy) were injected with 6×10^4 BMC previously treated with FTGN tetrapeptide at different concentrations (0.1, 0.5, 1.0, 10.0 and 50.0 μg/ml). Spleen colonies were measured 9 days after irradiation and compared to mice transplanted with BMC incubated only with PBS.
as §1, with “Bone marrow cells from femur” for “Spleen colonies”, “counted 4,” for “measured”, “9 and 16” for “9”
Donor BM cells incubated ex vivo in RPMI medium in the presence (10 μg/ml) or absence of FTGN tetrapeptide for 2 hours were transplanted into irradiated recipient mice (7.0 Gy.). Twenty days after transplant BMC/bone were counted.
In order to elucidate the optimal FTGN tetrapeptide treatment concentration needed to achieve maximum recovery of radiation damaged BMC, two sets of donor cells were examined. Donor BMC (4-6×10^6 cells/ml) from normal untreated C57 Bl/6J mice and from in vivo irradiated mice (4.5 Gy) collected 24 hours post-irradiation, were incubated for two hours with different concentrations of FTGN tetrapeptide (0.05; 0.1; 0.5; 1.0; 10 and 50 μg/ml). Whole body irradiated (7.0 Gy) C57Bl/6J mice were intravenously injected with 6×10^4 of each different donor treated cells or with control cells. The recovery of the hematopoietic system in the transplanted mice was evaluated from the 4th to the 30th day post-irradiation.

Bone marrow cells = test: In vitro incubation of BM cells with FTGN, cloning in methylcellulose medium (myeloid colonies); format: cell-based, mice; conditions: 10 μg/ml, 2 hours; for number of colonies: vs no tetrapeptide
Protocol: FIG. 7a-c: FTGN tetrapeptide biological activity tested in vitro. BM cells were incubated in vitro in RPMI medium in the presence (10 μg/ml) or absence of FTGN tetrapeptide for 2 hours. Cells were washed and cloned in methylcellulose-containing medium.
Bone marrow cells from normal (non irradiated) mice (4-6×10^6 cells/ml) were incubated for 2 hours with 10 μg/ml tetrapeptide; the cells were washed and cloned in cytokine-supplemented methylcellulose semi-solid medium.
Myeloid colonies formed after two weeks were counted.

[7] = system: Mice irradiated with a high lethal dose (10 Gy); test: Survival of lethally irradiated mice (10 Gy) transplanted with BM cells treated with FTGN; format: in vivo; conditions: 6×10^4 cells incubated one hour with 10 μg/ml, 30 days post-transplant
Protocol: Lethally irradiated mice (10 Gy.) were transplanted with 60.000 donor BM cells previously incubated for 1 hour in the presence ([…]) or absence of FTGN tetrapeptide. Mice survival was pursue during 30 days and compared to control irradiated mice untreated or mice that were transplanted with untreated donor BMC.
Mice irradiated with a high lethal dose (10 Gy) were injected with 6×10^4 cells previously incubated for one hour with 10 μg/ml FTGN tetrapeptide. Mice survival was surveyed for a 30 days period post-transplant.

[8] = 7.5 Gy, treated vs untreated mice (summary)
[9] = 9th day, vs mice transplanted with non-treated cells

NCCCNCCSP(=O)(O)O [amifostine]
stability at room temperature once reconstituted [1]: quite limited
patients with nausea and vomiting [2]: approximately 53%

FTGN (listed as Testudo horsfieldi)
BM repopulation (BM nucleated cells count and CFUc) (Irradiated mice (6.5 Gy)): increased the BM repopulation
structural and biological activities after dry freeze long term storage ([3]; dry freeze storage, −10° C. for one year, reconstituted in water): preserved
stability after reconstitution in purified water or serum ([3]; four hours of incubation at 37° C.): stable
spleen weight ([4]; 4th day after transplantation, vs control): No difference
number of bone marrow cells (BMC) [4, 8]: increased
number of white blood cells (WBC) [4, 8]: increased
spleen growth [4, 8]: enhanced spleen growth
spleen colonies number [4, 9]: augmented
spleen weight [4, 9]: augmented
peripheral blood white cells counts (WBC) ([4]; 16th day): improved
total number of nucleated bone marrow cells per femur ([4]; 16th day): doubled
spleen weight ([4]; 16th day, relative to control group): lower
colony-forming cells (CFUbm) in the bone marrow ([4]; semi-solid medium, 9th and 16th day): improvement when low concentrations of the oligopeptide were used
number of spleen colonies [5]: substantially enhanced
ex vivo treatment dose giving the greatest number of nucleated cell in BM ([6]; 4, 9 and 16 days after irradiation, 0.05-50 μg/ml tested): 1 to 10 µg/mL
ex vivo treatment dose giving the highest spleen colony forming units (CFUs) count ([6]; 9th day, 0.05-50 μg/ml tested): 1 to 10 µg/mL
BM repopulation activity after transplant ([6]; donor cells normal or from irradiated (4.5 Gy) mouse, 10 μg/ml, 2 hours): accelerated
myeloid colony number (Bone marrow cells; BM cells from normal (non irradiated) mice, colonies after two weeks): increased colony number
number of colonies (Bone marrow cells; ex vivo irradiated cells (4.5 Gy)): larger number of colonies
number of colonies (Bone marrow cells; in vivo irradiated cells (4.5 Gy)): larger number of colonies
survival [7]: 100%
